Test results reported in patent US8318949B2, “Organic compounds” (Novartis AG, priority 2008, dated 2012).

For Cc1nc(N2C[C@@H](C)N(Cc3ccc(C(F)(F)F)cc3)C2=O)sc1C(=O)NCc1ccccn1 [Example 2.20, (R)-4-methyl-2-(4-methyl-2-oxo-3-(4-(trifluoromethyl)benzyl)imidazolidin-1-yl)-N-(pyridin-2-ylmethyl)thiazole-5-carboxamide], the melting point was 136 to 137 °C. For Cc1nnc(-c2sc(N3CCN(Cc4ccc(C(F)(F)F)cc4)C3=O)nc2C)[nH]1 [Example 3, 1-(4-methyl-5-(5-methyl-4H-1,2,4-triazol-3-yl)thiazol-2-yl)-3-(4-(trifluoromethyl)benzyl)imidazolidin-2-one], the melting point was 273 to 274 °C. Compound Cc1nnc(-c2sc(N3CCN(Cc4ccc(F)cc4)C3=O)nc2C)[nH]1 [Example 3.1, 1-(4-fluorobenzyl)-3-[4-methyl-5-(5-methyl-4H-1,2,4-triazol-3-yl)thiazol-2-yl]imidazolidin-2-one] has a melting point of 248 to 249 °C. With Cc1cc(-c2sc(N3CCN(CC4CC4)C3=O)nc2C)n[nH]1 [Example 6, 1-(cyclopropylmethyl)-3-(4-methyl-5-(5-methyl-1H-pyrazol-3-yl)thiazol-2-yl)imidazolidin-2-one] the melting point was 231 to 233 °C. Cc1cc(-c2sc(N3CCN(Cc4cccc(C(F)(F)F)c4)C3=O)nc2C)n[nH]1 [Example 6.1, 1-(4-methyl-5-(5-methyl-1H-pyrazol-3-yl)thiazol-2-yl)-3-(3-(trifluoromethyl)benzyl)imidazolidin-2-one] showed a melting point of 163 to 164 °C. Compound Cc1cc(-c2sc(N3CCN(Cc4ccc(F)cc4)C3=O)nc2C)n[nH]1 [Example 6.2, 1-(4-fluorobenzyl)-3-(4-methyl-5-(5-methyl-1H-pyrazol-3-yl)thiazol-2-yl)imidazolidin-2-one] has a melting point of 218 to 221 °C. Work on Cc1nc(N2CCN(CC3CC3)C2=O)sc1-c1cc[nH]n1 [Example 7, 1-(cyclopropylmethyl)-3-(4-methyl-5-(1H-pyrazol-3-yl)thiazol-2-yl)imidazolidin-2-one] yielded a melting point of 169 to 171 °C. Compound Cc1nc(N2CCN(CCC3CC3)C2=O)sc1-c1cc[nH]n1 [Example 8, 1-(2-cyclopropylethyl)-3-(4-methyl-5-(1H-pyrazol-3-yl)thiazol-2-yl)imidazolidin-2-one] has a melting point of 147 to 149 °C. Cc1nc(N2CCN(Cc3ccc(F)cc3)C2=O)sc1-c1cc[nH]n1 [Example 9, 1-(4-fluorobenzyl)-3-(4-methyl-5-(1H-pyrazol-3-yl)thiazol-2-yl)imidazolidin-2-one] showed a melting point of 239 to 242 °C. Compound Cc1nc(N2CCN(Cc3ccccc3)C2=O)sc1C(N)=O [Example 10, 2-(3-benzyl-2-oxoimidazolidin-1-yl)-4-methylthiazole-5-carboxamide] has a melting point of 217 to 218 °C. In the case of Cc1nnc(-c2sc(N3CCN(Cc4ccccc4)C3=O)nc2C)[nH]1 [Example 11, 1-benzyl-3-(4-methyl-5-(5-methyl-4H-1,2,4-triazol-3-yl)thiazol-2-yl)imidazolidin-2-one], the melting point is reported as 284 to 287 °C. Work on Cc1nc(N2CCN(CC3CC3)C2=O)sc1C(=O)NCc1cncc(F)c1 [Example 12, 2-(3-(cyclopropylmethyl)-2-oxoimidazolidin-1-yl)-N-((5-fluoropyridin-3-yl)methyl)-4-methylthiazole-5-carboxamide] yielded a melting point of 144 to 145 °C. Work on Cc1nc(N2CCN(CCCC(F)(F)F)C2=O)sc1C(=O)NCc1cccnc1 [Example 12.3, 4-methyl-2-(2-oxo-3-(4,4,4-trifluorobutyl)imidazolidin-1-yl)-N-(pyridin-3-ylmethyl)thiazole-5-carboxamide] yielded a melting point of 167 to 169 °C. Compound Cc1cncc(CNC(=O)c2sc(N3CCN(CCCC(F)(F)F)C3=O)nc2C)n1 [Example 12.6, 4-methyl-N-((6-methylpyrazin-2-yl)methyl)-2-(2-oxo-3-(4,4,4-trifluorobutyl)imidazolidin-1-yl)thiazole-5-carboxamide] has a melting point of 123 °C. In the case of Cc1nc(N2CCN(CCCC(F)(F)F)C2=O)sc1C(=O)NCc1ccncc1 [Example 12.7, 4-methyl-2-(2-oxo-3-(4,4,4-trifluorobutyl)imidazolidin-1-yl)-N-(pyridin-4-ylmethyl)thiazole-5-carboxamide], the melting point is reported as 178 to 181 °C. For Cc1nc(N2CCN(CC3CC3)C2=O)sc1C(=O)NCc1ccncn1 [Example 12.10, 2-(3-(cyclopropylmethyl)-2-oxoimidazolidin-1-yl)-4-methyl-N-(pyrimidin-4-ylmethyl)thiazole-5-carboxamide], the melting point was 188 to 191 °C. Cc1nc(N2CCN(CC3CC3)C2=O)sc1C(=O)NCc1ncccn1 [Example 12.11, 2-(3-(cyclopropylmethyl)-2-oxoimidazolidin-1-yl)-4-methyl-N-(pyrimidin-2-ylmethyl)thiazole-5-carboxamide] showed a melting point of 218 to 220 °C. Work on Cc1nc(N2CCN(CC3CC3)C2=O)sc1C(=O)NCc1cccnn1 [Example 12.12, 2-(3-(cyclopropylmethyl)-2-oxoimidazolidin-1-yl)-4-methyl-N-(pyridazin-3-ylmethyl)thiazole-5-carboxamide] yielded a melting point of 187 to 189 °C. With Cc1nc(N2CCN(CC3CC3)C2=O)sc1C(=O)NCc1ccncc1 [Example 12.13, 2-(3-(cyclopropylmethyl)-2-oxoimidazolidin-1-yl)-4-methyl-N-(pyridin-4-ylmethyl)thiazole-5-carboxamide] the melting point was greater than 200 °C. In the case of Cc1ncc(CNC(=O)c2sc(N3CCN(CC4CC4)C3=O)nc2C)s1 [Example 12.14, 2-(3-(cyclopropylmethyl)-2-oxoimidazolidin-1-yl)-4-methyl-N-((2-methylthiazol-5-yl)methyl)thiazole-5-carboxamide], the melting point is reported as 165 to 167 °C. Cc1nc(N2CCN(CC3CC3)C2=O)sc1C(=O)NCc1ncco1 [Example 12.15, 2-(3-(cyclopropylmethyl)-2-oxoimidazolidin-1-yl)-4-methyl-N-(oxazol-2-ylmethyl)thiazole-5-carboxamide] showed a melting point of 172 to 174 °C. Compound Cc1nc(N2CCN(Cc3ccc(F)cc3)C2=O)sc1C(=O)NCc1cocn1 [Example 12.16, 2-(3-(4-fluorobenzyl)-2-oxoimidazolidin-1-yl)-4-methyl-N-(oxazol-4-ylmethyl)thiazole-5-carboxamide] has a melting point of 188 to 191 °C. In the case of Cc1nc(N2CCN(CC(C)C)C2=O)sc1C(=O)NCc1ccncc1 [Example 12.17, 2-(3-isobutyl-2-oxoimidazolidin-1-yl)-4-methyl-N-(pyridin-4-ylmethyl)thiazole-5-carboxamide], the melting point is reported as 185 to 187 °C. With Cc1cncc(CNC(=O)c2sc(N3CCN(CC(C)C)C3=O)nc2C)n1 [Example 12.20, 2-(3-isobutyl-2-oxoimidazolidin-1-yl)-4-methyl-N-((6-methylpyrazin-2-yl)methyl)thiazole-5-carboxamide] the melting point was 139 to 142 °C. With Cc1nc(N2CCN(CC(C)C)C2=O)sc1C(=O)NCc1cnn(C)c1 [Example 12.21, 2-(3-isobutyl-2-oxoimidazolidin-1-yl)-4-methyl-N-((1-methyl-1H-pyrazol-4-yl)methyl)thiazole-5-carboxamide] the melting point was 155 to 158 °C. Cc1nc(N2CCN(CC(C)C)C2=O)sc1C(=O)NCc1ccn(C)n1 [Example 12.22, 2-(3-isobutyl-2-oxoimidazolidin-1-yl)-4-methyl-N-((1-methyl-1H-pyrazol-3-yl)methyl)thiazole-5-carboxamide] gave a melting point of 158 to 161 °C. Cc1nc(-n2cnn(CCC3CC3)c2=O)sc1C(=O)NCc1cccnc1 [Example 13, 2-(1-(2-cyclopropylethyl)-5-oxo-1H-1,2,4-triazol-4(5H)-yl)-4-methyl-N-(pyridin-3-ylmethyl)thiazole-5-carboxamide] gave a melting point of 139 to 140 °C. Cc1nc(-n2cnn(CC3CC3)c2=O)sc1C(=O)NCc1ccncc1 [Example 14, 2-(1-(cyclopropylmethyl)-5-oxo-1H-1,2,4-triazol-4(5H)-yl)-4-methyl-N-(pyridin-4-ylmethyl)thiazole-5-carboxamide] gave a melting point of 169 to 170 °C. For Cc1nc(-n2cnn(CC3CC3)c2=O)sc1C(=O)NCc1cc[nH]n1 [Example 14.1, N-((1H-pyrazol-3-yl)methyl)-2-(1-(cyclopropylmethyl)-5-oxo-1H-1,2,4-triazol-4(5H)-yl)-4-methylthiazole-5-carboxamide], the melting point was 167 to 168 °C. For Cc1nc(-n2cnn(CC3CC3)c2=O)sc1C(=O)NCc1cocn1 [Example 14.2, 2-(1-(cyclopropylmethyl)-5-oxo-1H-1,2,4-triazol-4(5H)-yl)-4-methyl-N-(oxazol-4-ylmethyl)thiazole-5-carboxamide], the melting point was 157 to 158 °C. Cc1nc(-n2cnn(CC3CC3)c2=O)sc1C(=O)NCc1ccccn1 [Example 14.3, 2-(1-(Cyclopropylmethyl)-5-oxo-1H-1,2,4-triazol-4(5H)-yl)-4-methyl-N-(pyridin-2-ylmethyl)thiazole-5-carboxamide] showed a melting point of 160 to 161 °C. With Cc1nc(-n2cnn(CC3CC3(F)F)c2=O)sc1C(=O)NCc1cccnc1 (stereo not drawn) [Example 15, 2-(1-((2,2-difluorocyclopropyl)methyl)-5-oxo-1H-1,2,4-triazol-4(5H)-yl)-4-methyl-N-(pyridin-3-ylmethyl)thiazole-5-carboxamide] the melting point was 160 to 161 °C. Cc1nc(N2CCN(CC3CC3(F)F)C2=O)sc1C(=O)NCc1cccnc1 (stereo not drawn) [Example 16, 2-(3-((2,2-difluorocyclopropyl)methyl)-2-oxoimidazolidin-1-yl)-4-methyl-N-(pyridin-3-ylmethyl)thiazole-5-carboxamide] showed a melting point of 169 to 171 °C. Compound Cc1nc(N2CCN(CC3CC3(F)F)C2=O)sc1C(=O)NCc1ncco1 (stereo not drawn) [Example 16.1, 2-(3-((2,2-difluorocyclopropyl)methyl)-2-oxoimidazolidin-1-yl)-4-methyl-N-(oxazol-2-ylmethyl)thiazole-5-carboxamide] has a melting point of 156 to 158 °C. In the case of Cc1nc(N2CCN(CC3CC3(F)F)C2=O)sc1C(=O)NCc1cncs1 (stereo not drawn) [Example 16.2, 2-(3-((2,2-difluorocyclopropyl)methyl)-2-oxoimidazolidin-1-yl)-4-methyl-N-(thiazol-5-ylmethyl)thiazole-5-carboxamide], the melting point is reported as 182 to 184 °C. Cc1csc(CNC(=O)c2sc(N3CCN(CC4CC4(F)F)C3=O)nc2C)n1 (stereo not drawn) [Example 16.3, 2-(3-((2,2-difluorocyclopropyl)methyl)-2-oxoimidazolidin-1-yl)-4-methyl-N-((4-methylthiazol-2-yl)methyl)thiazole-5-carboxamide] gave a melting point of 157 to 159 °C.
